In patent US20080107623A1, “Inhibitors of Hepatitis C Virus” (Bristol-Myers Squibb Company, priority 2006, published 2008):

Target: T1, HCV NS3/4A protease complex, BMS strain (UniProt P27958, species not given/STRAIN_BMS)
T1 construct: said of H77 and J4L6S, not expressly of BMS; These are given for the H77 and J4L6S constructs only
Experiment: FRET peptide assay to monitor HCV NS3/4A proteolytic activity (BMS strain)
Format: biochemical, HCV genotype 1a
Conditions: NS3/4A BMS strain; read-out: IC50 Activity Range
Text: HCV NS3 protease complexes, derived from the BMS strain, H77 strain or J4L6S strain, were generated, as described below. These purified recombinant proteins were generated for use in a homogeneous assay (see below) to provide an indication of how effective compounds of the present disclosure would be in inhibiting HCV NS3 proteolytic activity.
Serum from an HCV-infected patient was obtained from Dr. T. Wright, San Francisco Hospital. An engineered full-length cDNA (compliment deoxyribonucleic acid) template of the HCV genome (BMS strain) was constructed from DNA fragments obtained by reverse transcription-PCR (RT-PCR) of serum RNA (ribonucleic acid) and using primers selected on the basis of homology between other genotype 1a strains. From the determination of the entire genome sequence, a genotype 1a was assigned to the HCV isolate according to the classification of Simmonds et al. (See P Simmonds, K A Rose, S Graham, S W Chan, F McOmish, B C Dow, E A Follett, P L Yap and H Marsden, J. Clin. Microbiol., 31(6), 1493-1503 (1993)). […] The infectious clones, H77 (1a genotype) and J4L6S (1b genotype) were obtained from R. Purcell (NIH) and the sequences are published in Genbank (AAB67036, see Yanagi, M., Purcell, R. H., Emerson, S. U. and Bukh, J. Proc. Natl. Acad. Sci. U.S.A. 94(16),8738-8743 (1997); AF054247, see Yanagi, M., St Claire, M., Shapiro, M., Emerson, S. U., Purcell, R. H. and Bukh, J, Virology 244 (1), 161-172. (1998)).
NS3/4A protease complex-containing fractions were pooled and loaded on a desalting column Superdex-S200 pre-equilibrated with buffer D (25 mM HEPES, pH 7.5, 20% glycerol, 300 mM NaCl, 0.2% Triton X-100, 10 mM βME). Sample was loaded at a flow rate of 1 mL/min. NS3/4A protease complex-containing fractions were pooled and concentrated to approximately 0.5 mg/ml. The purity of the NS3/4A protease complexes, derived from the BMS, H77 and J4L6S strains, were judged to be greater than 90% by SDS-PAGE and mass spectrometry analyses. The enzyme was stored at −80° C., thawed on ice and diluted prior to use in assay buffer.
The purpose of this in vitro assay was to measure the inhibition of HCV NS3 protease complexes, derived from the BMS strain, H77 strain or J4L6S strain, as described above, by compounds of the present disclosure. This assay provides an indication of how effective compounds of the present disclosure would be in inhibiting HCV NS3 proteolytic activity.
In order to monitor HCV NS3/4A protease activity, an NS3/4A peptide substrate was used. The substrate was RET SI (Resonance Energy Transfer Depsipeptide Substrate; AnaSpec, Inc. cat #22991) (FRET peptide), described by Taliani et al. in Anal. Biochem. 240(2):60-67 (1996). […] The peptide also contains a fluorescence donor, EDANS, near one end of the peptide and an acceptor, DABCYL, near the other end. The fluorescence of the peptide is quenched by […] resonance energy transfer (RET) between the donor and the acceptor, but as the NS3 protease cleaves the peptide the products are released from RET quenching and the fluorescence of the donor becomes apparent.
The peptide substrate was incubated with one of the three recombinant NS3/4A protease complexes, in the absence or presence of a compound of the present disclosure. The inhibitory effects of a compound was determined by monitoring the formation of fluorescent reaction product in real time using a Cytofluor Series 4000. […]

T1 sequence (P27958 1027-1657, change not shown, one chain of several): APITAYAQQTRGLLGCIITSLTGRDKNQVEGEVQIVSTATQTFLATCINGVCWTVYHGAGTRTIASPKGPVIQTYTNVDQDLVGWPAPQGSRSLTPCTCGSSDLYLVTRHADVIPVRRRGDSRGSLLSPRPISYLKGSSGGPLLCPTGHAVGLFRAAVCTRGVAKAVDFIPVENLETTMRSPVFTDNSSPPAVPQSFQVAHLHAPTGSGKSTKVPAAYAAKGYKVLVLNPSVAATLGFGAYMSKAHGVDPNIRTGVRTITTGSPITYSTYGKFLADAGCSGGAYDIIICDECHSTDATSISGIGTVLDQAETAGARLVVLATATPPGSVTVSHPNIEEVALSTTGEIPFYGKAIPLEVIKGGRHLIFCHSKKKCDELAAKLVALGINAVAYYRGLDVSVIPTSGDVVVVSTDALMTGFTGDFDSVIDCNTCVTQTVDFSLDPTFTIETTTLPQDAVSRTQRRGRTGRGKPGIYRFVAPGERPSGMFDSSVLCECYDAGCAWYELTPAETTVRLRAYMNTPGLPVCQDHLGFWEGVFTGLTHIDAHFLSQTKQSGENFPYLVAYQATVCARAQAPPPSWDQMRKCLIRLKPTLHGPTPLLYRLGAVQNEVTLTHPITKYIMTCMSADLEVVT

SMILES: COc1c(O[C@@H]2C[C@H]3C(=O)N[C@]4(C(=O)NS(=O)(=O)C5CC5)C[C@H]4/C=C\CCCCC[C@H](NC(=O)OC(C)(C)C)C(=O)N3C2)ccc2c(Cl)nccc12 [Compound 3]
- IC50: < 100 nM
